Target: T1, Nuclear receptor ROR-gamma (Homo sapiens, UniProt P51449)
T1 sequence (P51449 whole entry): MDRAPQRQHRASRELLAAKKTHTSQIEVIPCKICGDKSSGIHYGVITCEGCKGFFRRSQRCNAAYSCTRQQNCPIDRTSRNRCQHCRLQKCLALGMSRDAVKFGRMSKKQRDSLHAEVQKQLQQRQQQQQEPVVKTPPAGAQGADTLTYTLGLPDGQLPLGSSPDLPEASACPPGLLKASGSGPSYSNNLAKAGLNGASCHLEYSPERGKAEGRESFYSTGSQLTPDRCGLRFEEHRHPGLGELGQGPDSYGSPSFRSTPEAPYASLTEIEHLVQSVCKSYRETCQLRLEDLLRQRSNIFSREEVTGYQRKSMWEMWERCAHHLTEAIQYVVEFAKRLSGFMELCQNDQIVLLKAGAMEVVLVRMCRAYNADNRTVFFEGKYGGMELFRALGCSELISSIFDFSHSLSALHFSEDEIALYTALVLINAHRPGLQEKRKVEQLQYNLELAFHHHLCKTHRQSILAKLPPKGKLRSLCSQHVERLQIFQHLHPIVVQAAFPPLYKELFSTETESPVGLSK
Assay: RORgammat 5xRORE Assay in Jurkat Cells (Assay 2) : Compounds of the present invention were tested for RORγ inverse agonist activity in a cell-based, transcriptional activity assay. […] (Promega, Cat. # N1021) using KpnI and HindIII restriction sites. […] Luciferase activity in the conditioned supernatants was determined with NanoGlo® assay reagents (Promega, Cat. # N1130).

IC50: 0.1 to 1 µM
Structure (SMILES): CCS(=O)(=O)c1ccc(CNC(=O)c2cnc3c(c2)C(=O)N(Cc2ccc(Cl)cc2)[C@H]3C(C)C)cc1

Reference: ChEMBL document CHEMBL5728053, “Dihydropyrrolopyridine inhibitors of ROR-gamma” (2020)
